Where two headings read alike, the source gives them in different places.

One data set has as its target T1, Dh-mPPase (Desulfitobacterium hafniense, UniProt B8FXV7).
T1 construct: gene hppA; full-length membrane protein expressed in E. coli C41(DE3)ril, assayed in inverted membrane vesicles; homodimer; K+-dependent H+-transporting, EC 7.1.3.1
T1 sequence (B8FXV7 1-671): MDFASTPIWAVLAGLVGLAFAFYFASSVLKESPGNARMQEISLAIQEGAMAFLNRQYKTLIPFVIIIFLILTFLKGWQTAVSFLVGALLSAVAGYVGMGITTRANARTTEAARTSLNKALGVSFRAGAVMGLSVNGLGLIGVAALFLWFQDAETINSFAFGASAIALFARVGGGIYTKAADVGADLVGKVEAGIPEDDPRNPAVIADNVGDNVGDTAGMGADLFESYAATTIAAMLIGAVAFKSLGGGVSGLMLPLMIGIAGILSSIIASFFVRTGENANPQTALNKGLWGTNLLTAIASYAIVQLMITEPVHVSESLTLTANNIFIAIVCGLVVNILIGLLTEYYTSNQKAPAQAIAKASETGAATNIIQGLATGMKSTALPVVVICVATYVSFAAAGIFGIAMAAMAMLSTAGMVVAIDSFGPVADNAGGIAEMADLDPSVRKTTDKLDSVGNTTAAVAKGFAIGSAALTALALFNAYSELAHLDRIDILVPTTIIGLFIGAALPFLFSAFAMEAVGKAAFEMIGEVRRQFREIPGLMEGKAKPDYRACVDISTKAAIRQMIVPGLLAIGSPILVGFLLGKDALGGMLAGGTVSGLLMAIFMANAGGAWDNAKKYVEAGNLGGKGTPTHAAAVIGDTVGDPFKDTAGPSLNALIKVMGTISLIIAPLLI
Briefly: continuous Pi analyzer assay of PPi hydrolysis, inverted membrane vesicles, global fit. It is filed as biochemical. An excerpt:
continuous Pi analyzer assay of PPi hydrolysis, inverted membrane vesicles, global fit on Dh-mPPase

Substrate in data set [1]: O=P(O)(O)OP(=O)(O)O
Briefly: cells, lysate or membranes. It is filed as biochemical, Desulfitobacterium hafniense. The following applies: varied free Mg2+ (extrapolated to Mg2+ saturation), 50 mM K+, 0.1 M MOPS-KOH pH 7.2, 25 °C, no inhibitor, first site of dimer, macroscopic, substrate counted as Mg2PPi.

On to `CC(O)(P(=O)(O)O)P(=O)(O)O` [HEDP], for which, at Dh-mPPase (read-out: Value / HEDP), the Ki was 27 ± 1 µM.

Regarding `NC(P(=O)(O)O)P(=O)(O)O` [AMDP], the Ki at Dh-mPPase (read-out: Value / AMDP) was determined as 0.4 ± 0.02 µM. Turning to `O=P(O)(O)NP(=O)(O)O` [IDP], the Ki on Dh-mPPase (read-out: Value / IDP) stood at 4.2 ± 0.2 µM.

B1: Dh-mPPase (Desulfitobacterium hafniense DCB-2) (protein)
chain: T1 sequence (B8FXV7 1-671)
notes: full-length membrane protein expressed in E. coli C41(DE3)ril, assayed in inverted membrane vesicles; homodimer; K+-dependent H+-transporting, EC 7.1.3.1
As for B1, the Km in data set [1] is given as 2.2 ± 0.1 µM.

Source of the values: publication PMC8469034, “Catalytic Asymmetry in Homodimeric H^+-Pumping Membrane Pyrophosphatase Demonstrated by Non-Hydrolyzable Pyrophosphate Analogs” (International Journal of Molecular Sciences, 2021).
